Experimental findings from US20100063155A1, “N-(3-PHENYLPROPYL)BENZAMIDE DERIVATIVES” (priority 2007, published 2010) are described below.

The subject of this test is Alternaria brassicae. In words: In vivo test on Alternaria brassicae (leaf spot of crucifers). Particulars: 500 ppm, preventive spray on radish plants (Pernot variety), contaminated after 24 hours, grading 6 to 7 days after contamination vs control plants. The protocol: The active ingredients tested are prepared by potter homogenisation in a mixture of acetone/tween/water. This suspension is then diluted with water to obtain the desired active material concentration.
Radish plants (Pernot variety), sown on a 50/50 peat soil-pozzolana substrate in starter cups and grown at 18-20° C., are treated at the cotyledon stage by spraying with the active ingredient prepared as described above.
Plants, used as controls, are treated with the mixture of acetone/tween/water not containing the active material.
After 24 hours, the plants are contaminated by spraying them with an aqueous suspension of Alternaria brassicae spores (40,000 spores per cm^3). The spores are collected from a 12 to 13 days-old culture.
The contaminated radish plants are incubated for 6-7 days at about 18° C., under a humid atmosphere.
Grading is carried out 6 to 7 days after the contamination, in comparison with the control plants.

Take `O=C(NCCCc1ccc(Cl)cc1Cl)c1ccccc1C(F)(F)F` [Compound 1, N-[3-(2,4-dichlorophenyl)propyl]-2-(trifluoromethyl)benzamide]: the protection entry is given as “at least 70%”.
